Here are results for 12 compounds from patent US8507509B2, “Saturated and insaturated bi- or tricyclic aryloxyacetamine derivatives and their use as fungicides” (Syngenta Crop Protection LLC, priority 2007, dated 2013).

For one assay, the system named is Septoria tritici. Put plainly: Septoria tritici (leaf blotch), liquid culture growth inhibition in nutrient broth. The class given is cell-based. Particulars: Zymoseptoria tritici; 200 ppm; PDB broth, 24 C; inhibition of growth determined photometrically after 72 hrs; read-out: control of fungal infection, Septoria tritici.
The test system of another assay is Plasmopara viticola. Kind of assay: Plasmopara viticola (downy mildew of grapevine), grapevine leaf disk assay, preventive. It counts as in vivo. Particulars: foliar, 168 h, 200 ppm, grapevine leaf disks, assessed seven days after inoculation, read-out: control of fungal infection, Plasmopara viticola.

For the compound `CSC(Oc1ccc2ncc(Br)cc2c1)C(=O)NC(C)(C)C=NOCc1ccc(Cl)cc1` (stereo not shown) [Compound No. 9, 2-(3-Bromo-quinolin-6-yloxy)-N-[2-(4-chloro-benzyloxyimino)-1,1-dimethyl-ethyl]-2-methylsulfanyl-acetamide], the inhibition of growth at 200 ppm in the assay with Septoria tritici is at least 60%.
As for `CSC(Oc1ccc2ncc(Br)cc2c1)C(=O)NC(C)(C)C=NOCC(C)C` (stereo not shown) [Compound No. 18, 2-(3-Bromo-quinolin-6-yloxy)-N-(2-iso-butoxyimino-1,1-dimethyl-ethyl)-2-methylsulfanyl-acetamide], the pest or weed control at 200 ppm with Plasmopara viticola is at least 60%. Besides, the inhibition of growth at 200 ppm with Septoria tritici was at least 60%.
Turning to `CSC(Oc1cc(C)c2ncc(Br)cc2c1)C(=O)NC(C)(C)C=NOC(C)(C)C` (stereo not shown) [Compound No. 22, 2-(3-Bromo-8-methyl-quinolin-6-yloxy)-N-(2-tert-butoxyimino-1,1-dimethyl-ethyl)-2-methylsulfanyl-acetamide], the inhibition of growth at 200 ppm in the assay on Septoria tritici was at least 60%.
On the same count and under the same terms, in the case of `CCOC(=O)C(C)(C)O/N=C/C(C)(C)NC(=O)C(Oc1cc(C)c2ncc(Br)cc2c1)SC` (stereo not shown) [Compound No. 24, 2-[2-[2-(3-Bromo-8-methyl-quinolin-6-yloxy)-2-methylsulfanyl-acetylamino]-2-methyl-prop-(E)-ylideneaminooxy]-2-methyl-propionic acid ethyl ester] it was at least 60%; in that of `CSC(Oc1cc(C)c2ncc(Br)cc2c1)C(=O)NC(C)(C)C=NOCC(C)C` (stereo not shown) [Compound No. 25, 2-(3-Bromo-8-methyl-quinolin-6-yloxy)-N-(2-isobutoxyimino-1,1-dimethyl-ethyl)-2-methylsulfanyl-acetamide], at least 60%.
Turning to `C=CCON=CC(C)(C)NC(=O)C(Oc1cc(C)c2ncc(Br)cc2c1)SC` (stereo not shown) [Compound No. 28, N-(2-Allyloxyimino-1,1-dimethyl-ethyl)-2-(3-bromo-8-methyl-quinolin-6-yloxy)-2-methylsulfanyl-acetamide], in the assay on Plasmopara viticola, the pest or weed control at 200 ppm was at least 60%. Also, in the assay with Septoria tritici, the inhibition of growth at 200 ppm was at least 60%.
`CCCCON=CC(C)(C)NC(=O)C(Oc1cc(C)c2ncc(Br)cc2c1)SC` (stereo not shown) [Compound No. 30, 2-(3-Bromo-8-methyl-quinolin-6-yloxy)-N-(2-butoxyimino-1,1-dimethyl-ethyl)-2-methylsulfanyl-acetamide]: in the assay on Septoria tritici, the inhibition of growth at 200 ppm was at least 60%.
In the case of `CSC(Oc1cc(C)c2ncc(I)cc2c1)C(=O)NC(C)(C)CC=NOC(C)(C)C` (stereo not shown) [Compound No. 43, N-(3-tert-Butoxyimino-1,1-dimethyl-propyl)-2-(3-iodo-8-methyl-quinolin-6-yloxy)-2-methylsulfanyl-acetamide], the inhibition of growth at 200 ppm in the assay with Septoria tritici was at least 60%.
On to `CSC(Oc1cc(C)c2ncc(I)cc2c1)C(=O)NC(C)(C)CC=NOCc1ccccc1` (stereo not shown) [Compound No. 47, N-(3-Benzyloxyimino-1,1-dimethyl-propyl)-2-(3-iodo-8-methyl-quinolin-6-yloxy)-2-methylsulfanyl-acetamide], for which the pest or weed control at 200 ppm with Plasmopara viticola is at least 60%. In addition, in the assay with Septoria tritici, the inhibition of growth at 200 ppm is at least 60%.
For the compound `CSC(Oc1cc(C)c2ncc(Br)cc2c1)C(=O)NC(C)(C)C=NOCc1ccccc1` (stereo not shown) [Compound No. 110, N-(2-Benzyloxyimino-1,1-dimethyl-ethyl)-2-(3-bromo-8-methyl-quinolin-6-yloxy)-2-methylsulfanyl-acetamide], the inhibition of growth at 200 ppm in the assay with Septoria tritici is at least 60%.
As for `CCON=C(Cc1ccsc1)C(C)(C)NC(=O)C(Oc1ccc2ncc(Br)cc2c1)SC` (stereo not shown) [Compound No. 125, 2-(3-Bromo-quinolin-6-yloxy)-N-{2-[(E or Z)-ethoxyimino]-1,1-dimethyl-3-thiophen-3-yl-propyl}-2-methylsulfanyl-acetamide], in the assay with Plasmopara viticola, the pest or weed control at 200 ppm is at least 60%. In addition, the inhibition of growth at 200 ppm in the assay on Septoria tritici is at least 60%.
In the case of `C#Cc1cnc2c(C)cc(OC(CC)C(=O)NC(C)(C)C=NOCC(C)C)cc2c1` (stereo not shown) [Compound No. 136, 2-(3-Ethynyl-8-methyl-quinolin-6-yloxy)-N-(2-isobutoxyimino-1,1-dimethyl-ethyl)-butyramide], the inhibition of growth at 200 ppm with Septoria tritici is at least 60%.
